The record followed here is patent US9040545B2, “Heterocyclyl pyrazolopyrimidine analogues as selective JAK inhibitors” (Cellzome Limited, priority 2010, dated 2015).

Some results are limits rather than exact numbers.

The test addresses T1, JAK3 (Homo sapiens, UniProt P52333).
T1 construct: endogenous in cells; host or cells: mixed Molt4/Ramos lysate (1:2)
T1 sequence (P52333 1-1124): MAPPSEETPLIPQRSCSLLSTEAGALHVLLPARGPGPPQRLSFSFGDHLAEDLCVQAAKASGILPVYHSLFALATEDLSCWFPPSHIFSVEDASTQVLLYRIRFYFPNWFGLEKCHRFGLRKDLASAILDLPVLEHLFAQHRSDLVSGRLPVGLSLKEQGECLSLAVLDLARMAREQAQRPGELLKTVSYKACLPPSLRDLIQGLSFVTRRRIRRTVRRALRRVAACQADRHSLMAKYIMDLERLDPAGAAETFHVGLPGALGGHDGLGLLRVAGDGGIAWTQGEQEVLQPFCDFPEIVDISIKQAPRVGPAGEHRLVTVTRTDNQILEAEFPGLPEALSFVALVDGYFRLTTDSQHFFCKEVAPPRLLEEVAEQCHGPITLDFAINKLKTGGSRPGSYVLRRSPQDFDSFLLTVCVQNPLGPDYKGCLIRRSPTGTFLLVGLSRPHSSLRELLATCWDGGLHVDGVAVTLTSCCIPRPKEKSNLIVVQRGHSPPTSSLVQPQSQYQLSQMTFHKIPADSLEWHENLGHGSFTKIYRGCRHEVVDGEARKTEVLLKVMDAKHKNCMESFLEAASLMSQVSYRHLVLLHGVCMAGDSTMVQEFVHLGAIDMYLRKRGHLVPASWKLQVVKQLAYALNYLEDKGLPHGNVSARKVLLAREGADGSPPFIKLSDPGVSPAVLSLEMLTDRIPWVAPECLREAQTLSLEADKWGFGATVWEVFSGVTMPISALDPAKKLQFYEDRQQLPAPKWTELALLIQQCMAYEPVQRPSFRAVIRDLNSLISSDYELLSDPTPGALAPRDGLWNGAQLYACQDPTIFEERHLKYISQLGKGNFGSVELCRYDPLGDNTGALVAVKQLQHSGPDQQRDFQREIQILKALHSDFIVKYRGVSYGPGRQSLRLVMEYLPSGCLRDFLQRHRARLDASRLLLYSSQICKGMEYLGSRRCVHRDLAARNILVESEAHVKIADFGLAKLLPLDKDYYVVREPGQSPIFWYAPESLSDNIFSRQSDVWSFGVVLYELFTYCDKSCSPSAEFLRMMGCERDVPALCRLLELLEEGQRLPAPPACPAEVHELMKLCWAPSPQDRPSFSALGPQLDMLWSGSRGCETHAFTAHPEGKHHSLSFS
As to the kind of experiment: Kinobeads assay, JAK3. It counts as binding. The settings on record: mixed Molt4/Ramos lysate, read-out: Inhibition values (IC50) JAK3. Summed up: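 Competition binding in mixed Molt4/Ramos cell lysate (1:2, 10 mg/mL protein) with Kinobeads carrying immobilized aminopyrido-pyrimidine ligand, 3 h in cold room; 9-step 1:3 compound dilution series from 5 mM DMSO stock. Bead-bound JAK2/JAK3 eluted and quantified by antibody dot blot with infrared detection; IC50 from dose-response curves.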
Usually IC50 stands for the concentration that gives 50% inhibition. As to `Fc1cc(N2CCOCC2)c(F)c(Cn2ncc3cnc(Nc4cn[nH]c4)nc32)c1F` [Example 81, N-(1H-Pyrazol-4-yl)-1-(2,3,6-trifluoro-5-morpholinobenzyl)-1H-pyrazolo[3,4-d]pyrimidin-6-amine], the IC50 is under 100 nM.
On to `OCCn1cc(Nc2ncc3cnn(Cc4c(F)ccc(N5CCOCC5)c4F)c3n2)cn1` [Example 82, 2-(4-((1-(2,6-Difluoro-3-morpholinobenzyl)-1H-pyrazolo[3,4-d]pyrimidin-6-yl)amino)-1H-pyrazol-1-yl)ethanol], for which the IC50 was under 100 nM.
For the molecule `OCCn1cc(Nc2ncc3cnn(Cc4cccc(N5CCNCC5)c4F)c3n2)cn1` [Example 83, 2-(4-((1-(2-Fluoro-3-(piperazin-1-yl)benzyl)-1H-pyrazolo[3,4-d]pyrimidin-6-yl)amino)-1H-pyrazol-1-yl)ethanol], the IC50 was under 100 nM.
As for `O=C1COCCN1c1cc(F)cc(Cn2ncc3cnc(Nc4cn[nH]c4)nc32)c1` [Example 84, 4-(3-((6-((1H-Pyrazol-4-yl)amino)-1H-pyrazolo[3,4-d]pyrimidin-1-yl)methyl)-5-fluorophenyl)morpholin-3-one], the IC50 is under 100 nM.
With `O=C(c1cccc(Cn2ncc3cnc(Nc4cnn(CCO)c4)nc32)c1F)N1CCOCC1` [Example 85, (2-Fluoro-3-((6-((1-(2-hydroxyethyl)-1H-pyrazol-4-yl)amino)-1H-pyrazolo[3,4-d]pyrimidin-1-yl)methyl)phenyl)(morpholino)methanone], the IC50 is under 100 nM.
With `Cn1cc(Nc2ncc3cnn(Cc4cc(N5CCNCC5)cc(F)c4F)c3n2)cn1` [Example 86, 1-(2,3-Difluoro-5-(piperazin-1-yl)benzyl)-N-(1-methyl-1H-pyrazol-4-yl)-1H-pyrazolo[3,4-d]pyrimidin-6-amine], the IC50 was under 100 nM.
On to `Cn1cc(Nc2ncc3cnn(Cc4cccc(C(=O)N5CCOCC5)c4F)c3n2)cn1` [Example 87, (2-Fluoro-3-((6-((1-methyl-1H-pyrazol-4-yl)amino)-1H-pyrazolo[3,4-d]pyrimidin-1-yl)methyl)phenyl)(morpholino)methanone], for which the IC50 is under 100 nM.
For `Cn1cc(Nc2ncc3cnn(Cc4cccc(N5CCOCC5O)c4)c3n2)cn1` (centres unmarked) [Example 88, 4-(3-((6-((1-Methyl-1H-pyrazol-4-yl)amino)-1H-pyrazolo[3,4-d]pyrimidin-1-yl)methyl)phenyl)morpholin-3-ol], the IC50 was in the range of 100 to 1000 nM.
